Assay results from publication PMC9325274, “In Vitro and In Silico Investigation of Diterpenoid Alkaloids Isolated from Delphinium chitralense” (Molecules, 2022).
Read-outs that look alike come from different tables or passages of the source.

Experiments:
[1] = target: T1, BChE (horse serum EC 3.1.1.8) (Equus caballus, UniProt P81908); experiment: biochemical
T1 construct: purchased Sigma-Aldrich (St. Louis, MO, USA); host or cells: horse serum

[2] = target: T2, AChE (Electric-eel EC 3.1.1.7) (Electrophorus electricus, UniProt O42275); experiment: biochemical
T2 construct: purchased Sigma-Aldrich (St. Louis, MO, USA)
T2 sequence (O42275 24-633): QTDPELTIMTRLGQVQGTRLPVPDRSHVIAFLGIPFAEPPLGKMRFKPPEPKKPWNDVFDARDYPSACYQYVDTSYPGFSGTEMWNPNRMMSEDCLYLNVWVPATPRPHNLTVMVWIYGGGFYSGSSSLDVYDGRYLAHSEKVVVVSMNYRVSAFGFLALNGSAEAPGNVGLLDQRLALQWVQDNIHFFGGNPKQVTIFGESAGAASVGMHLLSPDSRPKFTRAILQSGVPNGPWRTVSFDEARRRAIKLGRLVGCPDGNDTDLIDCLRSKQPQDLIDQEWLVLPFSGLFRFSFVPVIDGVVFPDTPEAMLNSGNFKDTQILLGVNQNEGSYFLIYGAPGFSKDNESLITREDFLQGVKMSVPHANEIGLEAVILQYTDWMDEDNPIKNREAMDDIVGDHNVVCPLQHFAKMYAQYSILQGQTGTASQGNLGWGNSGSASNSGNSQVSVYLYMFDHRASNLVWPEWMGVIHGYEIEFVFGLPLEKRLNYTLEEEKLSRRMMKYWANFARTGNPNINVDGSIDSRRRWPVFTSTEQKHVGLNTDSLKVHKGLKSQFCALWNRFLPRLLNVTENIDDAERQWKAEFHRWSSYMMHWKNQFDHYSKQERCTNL

[3] = read-out: BChE ± SEM (IC50), SEM of five assays
[4] = read-out: AChE ± SEM (IC50); Electric-eel AChE; SEM of five assays

T1 sequence (P81908 whole entry): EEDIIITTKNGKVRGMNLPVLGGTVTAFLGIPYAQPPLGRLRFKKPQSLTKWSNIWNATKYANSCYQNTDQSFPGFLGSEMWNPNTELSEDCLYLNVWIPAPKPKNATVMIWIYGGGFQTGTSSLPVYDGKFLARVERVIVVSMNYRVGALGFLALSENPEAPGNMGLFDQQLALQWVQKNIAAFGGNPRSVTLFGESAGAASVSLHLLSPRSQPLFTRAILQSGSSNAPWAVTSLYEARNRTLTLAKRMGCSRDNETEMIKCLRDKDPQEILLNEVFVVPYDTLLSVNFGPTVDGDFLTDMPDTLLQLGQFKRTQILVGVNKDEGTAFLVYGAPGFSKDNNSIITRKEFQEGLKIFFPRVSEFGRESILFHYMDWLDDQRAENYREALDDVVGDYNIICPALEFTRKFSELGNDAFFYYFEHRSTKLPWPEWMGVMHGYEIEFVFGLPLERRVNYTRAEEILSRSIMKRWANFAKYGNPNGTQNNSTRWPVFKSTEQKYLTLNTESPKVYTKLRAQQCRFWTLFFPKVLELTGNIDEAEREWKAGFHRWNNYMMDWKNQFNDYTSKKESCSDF

C=C1CC23CC(=O)C4C5(C)CC(O)C(O)C46C(C2C(=O)C1CC36O)N(C)C5 (stereo not drawn) [Compound 1, 9β-hydroxy hetidine]
IC50 ([1]; SEM of five assays, read-out: BChE ± SEM (IC50)): 28.2 ± 0.92 µM
IC50 ([2]; Electric-eel AChE; SEM of five assays; read-out: AChE ± SEM (IC50)): 13.9 ± 0.35 µM
Type of Inhibition ([2]; stated for inhibition of AChE and BChE; listed as Chitralinine A): Competitive

C=C1CC23CC(=O)C4C56C(C2C(=O)C1(O)C(O)C35O)N(C)C(O)[C@]4(C)CC(O)[C@@H]6O (stereo partly drawn) [Compound 2, 9,11,12,19β- tetrahydoxy hetidine]
IC50 [1, 3]: 24.3 ± 0.33 µM
IC50 [2, 4]: 11.64 ± 0.08 µM
Type of Inhibition ([2]; stated for inhibition of AChE and BChE; listed as Chitralinine B): Competitive

C=C1CC23CC(=O)C4C5(C)CC(O)C(O)C46C(C2CC1(O)C(O)C36O)N(C)C5O (stereo not drawn) [Compound 3, 1α, 2, 9,11,12,19β-hexahydoxy atisinone]
IC50 [1, 3]: 26.35 ± 0.06 µM
IC50 [2, 4]: 12.1 ± 0.82 µM
Type of Inhibition ([2]; stated for inhibition of AChE and BChE; listed as Chitralinine-C): Competitive
